Columns and labels:
Format in all cases: in vivo
[1] = tested on: foxtail, giant (giant foxtail, Setaria faberii); assay: Test A preemergence, giant foxtail; settings: Preemergence, 0 to 100 scale (0 no effect, 100 complete control)
How it was run: (§1)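 Planted seeds in loam soil mixed with sand; sprayed soil directly (pre). Grew seedlings to one- to two-leaf stage, 2–10 cm; sprayed foliage (post). Held in greenhouse ~10 days. Rated injury visually vs untreated controls, 0–100.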

[2] = tested on: barnyardgrass (Echinochloa crus-galli); assay: Test A postemergence, barnyardgrass
How it was run: as §1

[3] = tested on: pigweed (Amaranthus retroflexus); assay: Test A preemergence, pigweed; settings: Preemergence, 0 to 100 scale (0 no effect, 100 complete control)
How it was run: as §1

[4] = tested on: blackgrass (Alopecurus myosuroides); assay: Test A postemergence, blackgrass
How it was run: as §1

[5] = tested on: barnyardgrass (Echinochloa crus-galli); assay: Test A preemergence, barnyardgrass; settings: Preemergence, 0 to 100 scale (0 no effect, 100 complete control)
How it was run: as §1

kochia (Kochia scoparia) [6] = assay: Test A postemergence, kochia
How it was run: as §1

corn (Zea mays) = assay: Test A postemergence, corn
How it was run: as §1

[7] = tested on: ryegrass, Italian (Italian ryegrass, Lolium multiflorum); assay: Test A preemergence, Italian ryegrass; settings: Preemergence, 0 to 100 scale (0 no effect, 100 complete control)
How it was run: as §1

[8] = tested on: ryegrass, Italian (Italian ryegrass, Lolium multiflorum); assay: Test A postemergence, Italian ryegrass
How it was run: as §1

[9] = tested on: galium (catchweed bedstraw, Galium aparine); assay: Test A postemergence, galium
How it was run: as §1

[10] = tested on: foxtail, giant (giant foxtail, Setaria faberii); assay: Test A postemergence, giant foxtail
How it was run: as §1

[11] = tested on: barnyardgrass (Echinochloa crus-galli); assay: Test B flooded paddy test, barnyardgrass; settings: 250 g ai/ha, Flood; visual rating after 13 to 15 days; scale 0 to 100, 0 is no effect, 100 is complete control
How it was run: (§2)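 Visual ratings, 0 = no effect to 100 = complete control, versus controls after 13 to 15 days in greenhouse. Test compounds were added to paddy water kept 3 cm over the soil surface, on plants at 2-leaf stage.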

[12] = tested on: ragweed (common ragweed, Ambrosia elatior); assay: Test A postemergence, ragweed
How it was run: as §1

[13] = tested on: ragweed (common ragweed, Ambrosia elatior); assay: Test A preemergence, ragweed; settings: Preemergence, 0 to 100 scale (0 no effect, 100 complete control)
How it was run: as §1

[14] = tested on: ducksalad (Heteranthera limosa); assay: Test B flooded paddy test, ducksalad; settings: 250 g ai/ha, Flood; visual rating after 13 to 15 days; scale 0 to 100, 0 is no effect, 100 is complete control
How it was run: as §2

kochia (Kochia scoparia) [15] = assay: Test A preemergence, kochia; settings: Preemergence, 0 to 100 scale (0 no effect, 100 complete control)
How it was run: as §1

[16] = tested on: wheat (Triticum aestivum); assay: Test A postemergence, wheat
How it was run: as §1

rice (Oryza sativa) = assay: Test B flooded paddy test, rice; settings: 250 g ai/ha, Flood; visual rating after 13 to 15 days; scale 0 to 100, 0 is no effect, 100 is complete control
How it was run: as §2

[17] = tested on: pigweed (Amaranthus retroflexus); assay: Test A postemergence, pigweed
How it was run: as §1

[18] = tested on: sedge, umbrella (small-flower umbrella sedge, Cyperus difformis); assay: Test B flooded paddy test, umbrella sedge; settings: 250 g ai/ha, Flood; visual rating after 13 to 15 days; scale 0 to 100, 0 is no effect, 100 is complete control
How it was run: as §2

[19] = 125 g ai/ha, postemergence, 0 to 100 scale, 0 is no effect, 100 is complete control, approximately 10 days
[20] = Postemergence, 31 g ai/ha, 0 to 100 scale (0 no effect, 100 complete control)
[21] = 31 g ai/ha, postemergence, 0 to 100 scale, 0 is no effect, 100 is complete control, approximately 10 days
[22] = 500 g ai/ha, postemergence, 0 to 100 scale, 0 is no effect, 100 is complete control, approximately 10 days

SMILES | Plant response rating, Foxtail, Giant ([1]; 125 g ai/ha) | Plant response rating, Barnyardgrass [2, 19] | Plant response rating, Pigweed ([3]; 125 g ai/ha) | Plant response rating, Blackgrass [4, 19] | Plant response rating, Barnyardgrass ([5]; 125 g ai/ha) | Plant response rating, Kochia (kochia (Kochia scoparia) [6]; [19]) | Plant response rating, Corn (corn (Zea mays); [19]) | Plant response rating, Ryegrass, Italian ([7]; 125 g ai/ha) | Plant response rating, Ryegrass, Italian [8, 19] | Plant response rating, Galium [9, 19] | Plant response rating, Foxtail, Giant [10, 19] | Plant response rating, Barnyardgrass [11] | Plant response rating, Ragweed [12, 19] | Plant response rating, Ragweed ([13]; 125 g ai/ha) | Plant response rating, Ducksalad [14] | Plant response rating, Kochia (kochia (Kochia scoparia) [15]; 125 g ai/ha) | Plant response rating, Wheat [16, 19] | Plant response rating, Rice (rice (Oryza sativa)) | Plant response rating, Pigweed [17, 19] | Plant response rating, Sedge, Umbrella [18] | further results
Cl/C=C/COc1c(I)cccc1Oc1ncc(Cl)cn1 [Compound 68] | 100 | 100 | 100 | 60 | 70 | 100 | 30 | 20 | 30 | 60 | 80 | 40 | 20 | 0 | 100 | 30 | 0 | 10 | 100 | 100 | Plant response rating, Foxtail, Giant ([1]; 31 g ai/ha): 70; Plant response rating, Barnyardgrass [2, 20]: 60; Plant response rating, Pigweed ([3]; 31 g ai/ha): 0; Plant response rating, Blackgrass [4, 20]: 20; Plant response rating, Barnyardgrass ([5]; 31 g ai/ha): 70; Plant response rating, Kochia (kochia (Kochia scoparia) [6]; [20]): 90; Plant response rating, Corn (corn (Zea mays); [20]): 20; Plant response rating, Ryegrass, Italian ([7]; 31 g ai/ha): 0; Plant response rating, Ryegrass, Italian [8, 20]: 0; Plant response rating, Galium [9, 20]: 50; Plant response rating, Foxtail, Giant [10, 20]: 30; Plant response rating, Ragweed [12, 20]: 0; Plant response rating, Ragweed ([13]; 31 g ai/ha): 0; Plant response rating, Kochia (kochia (Kochia scoparia) [15]; 31 g ai/ha): 0; Plant response rating, Wheat [16, 20]: 0; Plant response rating, Pigweed [17, 20]: 80
FC(F)(F)/C=C/COc1c(I)cccc1Oc1ncc(Cl)cn1 [Compound 61] | 80 | 50 | 70 | 0 | 20 | 90 | 30 | 0 | 0 | 50 | 30 | 20 | 0 | 0 | 100 | 0 | 0 | 25 | 90 | 95 | Plant response rating, Foxtail, Giant ([1]; 31 g ai/ha): 0; Plant response rating, Barnyardgrass [2, 21]: 0; Plant response rating, Pigweed ([3]; 31 g ai/ha): 0; Plant response rating, Blackgrass [4, 21]: 0; Plant response rating, Barnyardgrass ([5]; 31 g ai/ha): 0; Plant response rating, Kochia (kochia (Kochia scoparia) [6]; [21]): 40; Plant response rating, Corn (corn (Zea mays); [21]): 10; Plant response rating, Ryegrass, Italian ([7]; 31 g ai/ha): 0; Plant response rating, Ryegrass, Italian [8, 21]: 0; Plant response rating, Galium [9, 21]: 20; Plant response rating, Foxtail, Giant [10, 21]: 0; Plant response rating, Ragweed [12, 21]: 0; Plant response rating, Ragweed ([13]; 31 g ai/ha): 0; Plant response rating, Kochia (kochia (Kochia scoparia) [15]; 31 g ai/ha): 0; Plant response rating, Wheat [16, 21]: 0; Plant response rating, Pigweed [17, 21]: 80
CCCOc1c(C#N)cccc1Oc1ncc(Cl)cn1 [Compound 50] | 90 | 20 | 100 | 10 | 20 | 80 | 10 | 0 | 0 | 40 | 20 | 30 | 10 | 0 | 50 | 100 | 0 | 0 | 70 | 60 | Plant response rating, Foxtail, Giant ([1]; 31 g ai/ha): 10; Plant response rating, Barnyardgrass [2, 21]: 0; Plant response rating, Pigweed ([3]; 31 g ai/ha): 20; Plant response rating, Blackgrass [4, 21]: 0; Plant response rating, Barnyardgrass ([5]; 31 g ai/ha): 10; Plant response rating, Kochia (kochia (Kochia scoparia) [6]; [21]): 20; Plant response rating, Corn (corn (Zea mays); [21]): 10; Plant response rating, Ryegrass, Italian ([7]; 31 g ai/ha): 0; Plant response rating, Ryegrass, Italian [8, 21]: 0; Plant response rating, Galium [9, 21]: 10; Plant response rating, Foxtail, Giant [10, 21]: 0; Plant response rating, Ragweed [12, 21]: 10; Plant response rating, Ragweed ([13]; 31 g ai/ha): 0; Plant response rating, Kochia (kochia (Kochia scoparia) [15]; 31 g ai/ha): 20; Plant response rating, Wheat [16, 21]: 0; Plant response rating, Pigweed [17, 21]: 20
Cc1cccc(Oc2ncc(Cl)cn2)c1OCCC(F)(F)F [Compound 64] | 20 | 10 | 100 | 10 | 60 | 20 | 10 | 0 | 0 | 0 | 10 | 0 | 0 | 0 | 85 | 0 | 0 | 20 | 30 | 90 | Plant response rating, Foxtail, Giant ([1]; 31 g ai/ha): 0; Plant response rating, Barnyardgrass [2, 21]: 0; Plant response rating, Pigweed ([3]; 31 g ai/ha): 0; Plant response rating, Blackgrass [4, 21]: 0; Plant response rating, Barnyardgrass ([5]; 31 g ai/ha): 10; Plant response rating, Kochia (kochia (Kochia scoparia) [6]; [21]): 10; Plant response rating, Corn (corn (Zea mays); [21]): 0; Plant response rating, Ryegrass, Italian ([7]; 31 g ai/ha): 0; Plant response rating, Ryegrass, Italian [8, 21]: 0; Plant response rating, Galium [9, 21]: 0; Plant response rating, Foxtail, Giant [10, 21]: 0; Plant response rating, Ragweed [12, 21]: 0; Plant response rating, Ragweed ([13]; 31 g ai/ha): 0; Plant response rating, Kochia (kochia (Kochia scoparia) [15]; 31 g ai/ha): 0; Plant response rating, Wheat [16, 21]: 0; Plant response rating, Pigweed [17, 21]: 20
N#Cc1cccc(Oc2ncc(Cl)cn2)c1OCc1ccc(C(F)(F)F)cc1 [Compound 20] | 90 | 10 | 30 | 0 | 20 | 50 | 10 | 0 | 0 | 30 | 10 | 0 | 20 | 0 | 0 | 0 | 10 | 0 | 90 | 0 | Plant response rating, Foxtail, Giant ([1]; 500 g ai/ha): 100; Plant response rating, Barnyardgrass [2, 22]: 30; Plant response rating, Pigweed ([3]; 500 g ai/ha): 100; Plant response rating, Blackgrass [4, 22]: 20; Plant response rating, Barnyardgrass ([5]; 500 g ai/ha): 30; Plant response rating, Kochia (kochia (Kochia scoparia) [6]; [22]): 100; Plant response rating, Corn (corn (Zea mays); [22]): 20; Plant response rating, Ryegrass, Italian ([7]; 500 g ai/ha): 20; Plant response rating, Ryegrass, Italian [8, 22]: 20; Plant response rating, Galium [9, 22]: 80; Plant response rating, Foxtail, Giant [10, 22]: 30; Plant response rating, Ragweed [12, 22]: 30; Plant response rating, Ragweed ([13]; 500 g ai/ha): 0; Plant response rating, Kochia (kochia (Kochia scoparia) [15]; 500 g ai/ha): 50; Plant response rating, Wheat [16, 22]: 10; Plant response rating, Pigweed [17, 22]: 90
